Reference: patent US8273340B2, “Methods and compositions for attracting or repelling cockroaches” (The United States of America, as represented by the …, priority 2008, dated 2012)
Marks after values point to notes of the source that are not given here.

Columns and labels:
[1] = test system: Male cockroaches (Blattela germanica); experiment: Y-tube olfactometer bioassay, test compound in mineral oil on filter paper; assay type: in vivo; conditions: 0.5% w/v solution in mineral oil; mean of 3 replicates; 65% or more = significantly attractive (*), 35% or less = significantly repellent (**)
Text: The German cockroach (Blattela germanica) is one of the most difficult cockroach species to control in homes and was used to illustrate the invention. […] Since the cockroaches never contact the test sample, their response is strictly to the molecules in the air stream.
(§1) Olfactometer Bioassay: The Y-tube bioassay apparatus was similar to that described by Vander Meer et al. (J. Chem. Ecol., 14: 825-838 (1988)). Compressed air (breathing-air quality) was passed into the two choice arms at 0.2 l/min for a total flow of 0.4 l/min. Flow rates were adjusted and controlled by two flow meters (Omega Engineering, Inc.). All tubing carrying the air was either copper or Teflon. Prior to evaluating treatment samples, a positive standard was put through the bioassay procedure. […] Test samples (10.0 μl) and the solvent blank (mineral oil, 10.0 μl) were applied to filter paper strips (0.3×1.0 cm, Whatman No. 1) and then each was placed into one of the two choice arms. Male cockroaches (Blattela germanica) were prepared for their introduction into the olfactometer by placing them in a Teflon tube (3 cm×0.8 cm) that had one end blocked with a piece of copper mesh screen. The open end of tube was closed with a lightly attached piece of tape. The cockroaches were introduced individually by removing the tape and quickly inserting the Teflon tube into the entrance arm of the olfactometer. […] The initial choice of the cockroach was recorded. The cockroach was removed and the process was repeated 10 times with the same test and blank samples. The 10 choices usually required less than 5 minutes to complete. After each set of 10 cockroaches had made their choice, the olfactometer was rinsed with acetone, dried, and reassembled for the next test. Each sample was retested with the same cockroaches, but with the sample and control in reverse positions. The sum of the results from the two tests represented one replicate. This procedure minimized bias inherent in the apparatus. A null hypothesis of equal numbers of cockroaches in each arm was tested with chi-square analysis. […] Results in-between were neutral.
The diameter of the Y part of the olfactometer provided a close fit for the cockroach, thus keeping it in the center of the walkway.

[2] = test system: Male cockroaches (Blattela germanica); experiment: Y-tube olfactometer bioassay of controlled release pellets aged in a fume hood; assay type: in vivo; conditions: for Percent Response: mean of 3 replicates; for activity in the olfactometer (in words): charcoal as the absorbent, after one hour in the fume hood
Text: as §1, with “procedure. The standard was initially an attractive food material (grape flavoring concentrate used at 0.33%) and later 0.5% (w/v) methyl tiglate, one of the compounds of the present invention, in white, light mineral oil (Aldrich Chemical Co.).” for “procedure.”
Controlled Release Formulations: Four esters found to be significant cockroach attractants were selected for evaluation in controlled release formulations-developed by BioGuard, Inc. Six controlled release formulations from BioGuard were evaluated in the olfactometer. The attractants were methyl tiglate, butyl hexanoate, propyl propanoate, and butyl heptanoate. The attractants were absorbed to either coconut shell charcoal pellets or potassium substituted crystalline zeolite pellets, and then coated with water soluble methylcellulose. The powdered methyl cellulose was dissolved in 80° C. water until saturation, cooled to approx 25° C., the pellets immersed into the solution for a 30 sec, and removed and rapidly air dried with 30° C. pre-dried air. The end products were pellets (charcoal=2 mm×4 mm dia.; molecular sieve=4 mm×1.5 mm dia.). […] A single pellet was used in place of the filter paper described above. The control side was left blank.

[3] = Release rate of attractants from sustained release delivery systems; assay type: physicochemical
Text: Several secondary release rate control systems were developed. The first was a sachet that can contain the above polymer releasing system. This sachet can be either polyvinylidine chloride (PvdC) barrier film (e.g., Saranex™) enclosed in a thermally sealed metalized polyethylene container to eliminate release of active compounds, or a metalized polyethylene sachet with a removable seal that covers a vapor diffusion controlling orifice which when removed begins the release process from the internal polymer/carrier, or metalized polyethylene sachet which contains a small vial with a vapor controlling orifice. In the case of the Saranex™ sachet, the actual porosity of the Saranex™ control release is based on type of PVdC and thickness of the film. In the case of the metalized polyethylene sachet and internal polymer/carrier, a specific orifice size controlled the rate of diffusion of the active from the device, as shown in FIG. 4. An additional means of containing and reducing the release of the liquid active compounds and providing a solid support for use in the above delivery system involved sorbing the active compounds into an inert absorbent such as Membrana GmbH's expanded microporous polyolefin Accurel® MP100 which are granular or pelletized polyethylenes that have 10-50 μm air pockets throughout and can contain up to 90% of their volume in active compounds . MP100 was easily loaded with 80% by wt active ingredient due to its porosity. […] Thus, placement into the metalized polyethylene sachet with its diffusion regulating orifice was required.
Active compounds (1 gm active in Accurel® MP100) were sealed within the metalized polyethylene sachet, and a 0.5 mm hole placed into the film, and sealed until use with a metalized tape. Release rates for propyl propanoate, methyl tiglate, and butyl hexanoate were calculated at 15.5, 11.4, and 4.8 mg/day, respectively. Longevity of this system was calculated to be 64, 87, and 208 days, respectively.
Release rates for the thermoset urethane (Flexane® 80P) and synthetic rubbers systems ranged from 0.055 to 0.2 mg/cm^2/day, depending on durometer/hardness that is a measure of polymer crosslinking. Best results were obtained at durometer/hardness levels above D30. Release rates for the Saranex system without the release control provided by the metalized polyethylene and diffusion control orifice were 187, 236, and 7 mg/day for propyl propanoate, methyl tiglate, and butyl hexanoate, respectively.

[4] = test system: German roaches (B. germanica); experiment: Two-harborage arena bioassay of sustained release polymer formulations; assay type: in vivo; conditions: formulated with Santoprene; counted after 24 hours
Text: Evaluation of sustained release formulations: Three cockroach attractants (methyl tiglate, butyl heptanoate, and propyl proprionate) were formulated in one or more polymer formulations (Urethane, Pellethane, Santoprene, and/or Polyethylene) as indicated in Table 4.A sweater box (1.5×2.0×0.5 ft) provided the test arena. The sides of the arena were coated with a blend of mineral oil and Vaseline petroleum jelly. The tops of two 8 oz paper ice cream cups were tapped to the arena floor with masking tape and, prior to the addition of the test cockroaches, inverted cups without holes were fixed to the tapped lids. Twenty-five laboratory reared late stage nymphs or adult male German roaches (B. germanica), starved for 72 hrs, were added to the arena and allowed to calm down (ca. 1 hour). The starting inverted ice cream cups were carefully removed and each ice cream cup top was then supplied with a water tube (1.5 ml scintillation vial with water and stoppered with cotton), one lab chew food pellet, and either a test attractant polymer formulation or the corresponding polymer blank control. […] The cups were oriented so that the holes were facing each other. The number of roaches that sought harborage in the cups was counted after 24 hours by plugging the entrance holes with cotton, the roaches inside euthanized, and the numbers in each cup counted.

[5] = test system: cockroach; experiment: Bioassays for cockroach attraction of attractants sorbed into thermoplastic polymers; assay type: in vivo
Text: To alleviate the reactivity with the carrier polymers, we attempted to load active compounds into a series of thermoplastic polymers including urethanes and synthetic rubbers, based on the behavior of the active compounds as plasticizers. […] Propyl propanoate, methyl hexanoate, and methyl tiglate were loaded into a series of thermoplastic granulated feed materials, including 4-(1,1,3,3-tetramethylbutyl) with ethylene-5-ethylidenebicyclo[2.2.1]hept-2-ene-propene thermoplastic synthetic rubber (Santopren™ 203-40). Santoprene™ is a thermoplastic elastomer (TPE that is a mixture of in-situ cross linking of EPDM rubber and polypropylene compounds). Because of the longer life of Santopren™ in both extreme hot and cold environments, it is often preferred over the use of rubber. Pellethane™ 2102-55D is a polyester polycaprolactone polyurethane. Methyl hexanoate and methyl tiglate were sorbed using heat and pressure (60° C., 40 psi, 30 min) into the Santoprene® and were effective in bioassays for cockroach attraction. […] Loading rates of active compounds into the Santoprene®, using slightly elevated temperature (60° C.) and 40 psi pressure, were 8-12% by wt for the two compounds.

[6] = Charcoal absorbent, methylcellulose coated pellet, aged 1 hour in fume hood
[7] = charcoal controlled release formulation, aged 24 hours in fume hood
[8] = charcoal controlled release formulation, aged 48 hours in fume hood

Structure (SMILES) | Percent Response [1] | other results
CCCCOC(C)=O [Butyl Acetate] | 45.0% | –
CCCCOC(=O)CCC [Butyl Butanoate] | 35.0** % | –
CCCCCCC(=O)OCCCC [Butyl Heptanoate] | 80.0* % | Percent Response [2, 6]: 70.0%; activity in the olfactometer (in words) [2]: significantly active; Percent Response [2, 7]: 61.6%; Percent Response [2, 8]: 58.3%
CCCCCC(=O)OCCCC [Butyl Hexanoate] | 75.0* % | Longevity of the release system ([3]; 1 gm active in Accurel MP100 in metalized polyethylene sachet with 0.5 mm hole): 208 days; Release rate ([3]; 1 gm active in Accurel MP100 in metalized polyethylene sachet with 0.5 mm hole, FIG. 3): 4.8 mg/day; Release rate ([3]; Saranex system without metalized polyethylene and diffusion control orifice): 7 mg/day; Percent Response [2, 6]: 82.0%; activity in the olfactometer (in words) [2]: significantly active; Percent Response [2, 7]: 70.0%; Percent Response [2, 8]: 61.6%; attraction to treatment harborage versus polymer blank control (in words) [4]: significant attraction and subsequent aggregation
CCCCCCCCC(=O)OCCCC [Butyl Nonanoate] | 40.0% | –
CCCCCCCC(=O)OCCCC [Butyl Octanoate] | 55.0% | –
CCCCOC(=O)CCCC [Butyl Pentanoate] | 50.0% | –
CCCCOC(=O)CC [Butyl Propanoate] | 15.0** % | –
CCCC(=O)OCC [Ethyl Butyrate] | 63.3% | –
CCCCCCC(=O)OCC [Ethyl Heptanoate] | 40.0% | –
CCCCCC(=O)OCC [Ethyl Hexanoate] | 75.0* % | –
CCCCCCCC(=O)OCC [Ethyl Octanoate] | 50.0% | –
CCCCC(=O)OCC [Ethyl Pentanoate] | 65.0* % | –
CCOC(=O)CC [Ethyl Propanoate] | 65.0* % | –
CCCCCCOC(=O)CCC [Hexyl Butanoate] | 35.0** % | –
CCCC(=O)OC [Methyl Butanoate] | 55.0% | –
CCCCCCCCCC(=O)OC [Methyl Decanoate] | 55.0% | –
CCCCCCCCCCCC(=O)OC [Methyl Dodecanoate] | 45.0% | –
CCCCCCC(=O)OC [Methyl Heptanoate] | 50.0% | –
CCCCCC(=O)OC [Methyl Hexanoate] | 45.0% | effect in bioassays for cockroach attraction (in words) ([5]; loaded into Dow Pellethane): worked less well; effect in bioassays for cockroach attraction (in words) ([5]; sorbed into Santoprene (60° C., 40 psi, 30 min)): effective
CCCCCCCCC(=O)OC [Methyl Nonanoate] | 45.0% | –
CCCCC(=O)OC [Methyl Pentanoate] | 50.0% | –
CCC(=O)OC [Methyl Propanoate] | 60.0% | –
CCCCCCCCCCC(=O)OC [Methyl Undecanoate] | 45.0% | –
CCCOC(=O)CCC [Propyl Butanoate] | 35.0** % | –
CCCOC(C)=O [Propyl acetate] | 40.0% | –
